Literature values, collected in patent US20070276004A1, “Pharmaceutical Composition Comprising an Immunosuppressant for Use in the Treatment of Skin Diseases” (priority 2003, published 2007).

Tested on: allogeneic kidney transplantation
Conditions: rat model of allogeneic kidney transplantation; oral administration; suppression of systemic immune response

C=CC[C@@H]1/C=C(\C)C[C@H](C)C[C@H](OC)[C@H]2O[C@@](O)(C(=O)C(=O)N3CCCC[C@H]3C(=O)O[C@H](/C(C)=C/[C@@H]3CC[C@@H](O)[C@H](OC)C3)[C@H](C)[C@@H](O)CC1=O)[C@H](C)C[C@@H]2OC [tacrolimus]
minimum effective dose (MED): 14 mg/kg
